Each structure is given as a SMILES string. ≈ marks a conversion by molar mass, not a printed value.

Common to all, as to assay type: functional
Assay [1] concerns Klebsiella pneumoniae. Description: Antibacterial activity against Klebsiella pneumoniae ATCC 10031 after 24 hr by broth microdilution method. To be noted: ATCC 10031, 24 h.
The subject of assay [2] is Staphylococcus aureus. Description: Antibacterial activity against Staphylococcus aureus ATCC 11632 after 24 hr by broth microdilution method. Particulars: ATCC 11632, 24 h.
Assay [3] relates to Aspergillus niger. Description: Antifungal activity against Aspergillus niger ATCC 6275 after 24 hr by broth microdilution method. To be noted: ATCC 6275, 24 h.
Assay [4] deals with Candida tropicalis. The assay can be described thus: Antifungal activity against Candida tropicalis ATCC 1369 after 24 hr by broth microdilution method. To be noted: ATCC 1369, 24 h.
In assay [5] the test system is Bacillus subtilis. The assay can be described thus: Antibacterial activity against Bacillus subtilis ATCC 60511 after 24 hr by broth microdilution method. Particulars: ATCC 60511, 24 h.
Assay [6] relates to Pseudomonas aeruginosa. Description: Antibacterial activity against Pseudomonas aeruginosa ATCC 10145 after 24 hr by broth microdilution method. To be noted: ATCC 10145, 24 h.
For assay [7], the system named is Escherichia coli. Description: Antibacterial activity against Escherichia coli ATCC 10536 after 24 hr by broth microdilution method. To be noted: ATCC 10536, 24 h.
For assay [8], the system named is Mycobacterium tuberculosis. The assay can be described thus: Antitubercular activity against Mycobacterium tuberculosis H37Rv after 21 days by broth microdilution method. To be noted: 504 h.
Assay [9] relates to Saccharomyces cerevisiae. Description: Antifungal activity against Saccharomyces cerevisiae ATCC 9763 after 24 hr by broth microdilution method. Particulars: ATCC 9763, 24 h.
The test system of assay [10] is Enterococcus faecalis. Description: Antibacterial activity against Enterococcus faecalis ATCC 14506 after 24 hr by broth microdilution method. To be noted: ATCC 14506, 24 h.

Regarding `CC(C)c1csc(-c2nnc(S(=O)(=O)Cc3ccc(Cl)cc3)n2/N=C/c2ccc(Cl)cc2)n1`, the MIC was 31.2 µg/mL (≈ 60 µM) in assay [1]; 8 µg/mL (≈ 15.4 µM) in assay [2]; 8 µg/mL (≈ 15.4 µM) in assay [3]; 8 µg/mL (≈ 15.4 µM) in assay [4]; 31.2 µg/mL (≈ 60 µM) in [5]; 8 µg/mL (≈ 15.4 µM) in assay [6]. The MIC was 62.5 µg/mL (≈ 120 µM) in [7], 8 µg/mL (≈ 15.4 µM) in assay [8], 16 µg/mL (≈ 30.7 µM) in [9] and 8 µg/mL (≈ 15.4 µM) in assay [10].

On to `O=C(O)c1cn(C2CC2)c2cc(N3CCNCC3)c(F)cc2c1=O` [CIPROFLOXACIN], for which the MIC in assay [1] was at most 1 µg/mL; in [2] it was at most 5 µg/mL; in assay [5] it was at most 1 µg/mL; in [6], at most 5 µg/mL; in [7] it was at most 1 µg/mL; in assay [10], at most 5 µg/mL.

On to `CC(C)c1csc(-c2nnc(S(=O)(=O)Cc3ccc(Br)cc3)n2/N=C/c2ccc(F)cc2)n1`, for which the MIC turned out to be 8 µg/mL (≈ 14.6 µM) in [1]; 62.5 µg/mL (≈ 114 µM) in assay [2]; 125 µg/mL (≈ 228 µM) in assay [3]; 31.2 µg/mL (≈ 57 µM) in [4]; 8 µg/mL (≈ 14.6 µM) in assay [5]; 62.5 µg/mL (≈ 114 µM) in assay [6]. Moreover, the MIC in assay [7] stood at 8 µg/mL (≈ 14.6 µM); in [8], 8 µg/mL (≈ 14.6 µM); in assay [9] it was 31.2 µg/mL (≈ 57 µM); in assay [10] it was 62.5 µg/mL (≈ 114 µM).

On to `CC(C)c1csc(-c2nnc(S(=O)(=O)Cc3ccc(Cl)cc3)o2)n1`, for which the MIC in [1] was 8 µg/mL (≈ 20.8 µM); in assay [2], 16 µg/mL (≈ 41.7 µM); in assay [3] it was 16 µg/mL (≈ 41.7 µM); in assay [4], 8 µg/mL (≈ 20.8 µM); in assay [5], 8 µg/mL (≈ 20.8 µM); in assay [6], 8 µg/mL (≈ 20.8 µM). In addition, the MIC turned out to be 4 µg/mL (≈ 10.4 µM) in assay [7], 4 µg/mL (≈ 10.4 µM) in [8], 8 µg/mL (≈ 20.8 µM) in [9] and 31.2 µg/mL (≈ 81.4 µM) in assay [10].

As for `CC(C)c1csc(-c2nnc(S(=O)(=O)Cc3ccccc3)o2)n1`, the MIC amounted to 8 µg/mL (≈ 22.9 µM) in assay [1]; 62.5 µg/mL (≈ 179 µM) in assay [2]; 16 µg/mL (≈ 45.8 µM) in [3]; 8 µg/mL (≈ 22.9 µM) in [4]; 31.2 µg/mL (≈ 89.4 µM) in assay [5]; 8 µg/mL (≈ 22.9 µM) in [6]. Further, the MIC in [7] was found to be 8 µg/mL (≈ 22.9 µM); in assay [8], 4 µg/mL (≈ 11.4 µM); in [9], 4 µg/mL (≈ 11.4 µM); in assay [10] it was 16 µg/mL (≈ 45.8 µM).

As for `CC(C)c1csc(-c2nnc(S(=O)(=O)Cc3ccc(Br)cc3)n2-c2ccccc2)n1`, the MIC in assay [1] is 16 µg/mL (≈ 31.8 µM); in assay [2] it was 8 µg/mL (≈ 15.9 µM); in assay [3], 16 µg/mL (≈ 31.8 µM); in [4], 16 µg/mL (≈ 31.8 µM); in assay [5], 16 µg/mL (≈ 31.8 µM); in assay [6], 8 µg/mL (≈ 15.9 µM). The MIC in [7] is 16 µg/mL (≈ 31.8 µM); in assay [8], 8 µg/mL (≈ 15.9 µM); in assay [9], 16 µg/mL (≈ 31.8 µM); in assay [10], 16 µg/mL (≈ 31.8 µM).

For `CC(C)c1csc(-c2nnc(S(=O)(=O)Cc3ccc(Br)cc3)n2/N=C/c2c(F)cccc2F)n1`, the MIC in assay [1] is 8 µg/mL (≈ 14.1 µM); in [2], 31.2 µg/mL (≈ 55.2 µM); in assay [3] it was 8 µg/mL (≈ 14.1 µM); in assay [4] it was 8 µg/mL (≈ 14.1 µM); in assay [5], 16 µg/mL (≈ 28.2 µM); in [6], 8 µg/mL (≈ 14.1 µM). For the same compound, the MIC came to 8 µg/mL (≈ 14.1 µM) in assay [7], 8 µg/mL (≈ 14.1 µM) in assay [8], 62.5 µg/mL (≈ 110 µM) in assay [9] and 16 µg/mL (≈ 28.2 µM) in [10].

For `CC(C)c1csc(-c2nnc(S(=O)(=O)Cc3ccc(Br)cc3F)n2/N=C/c2c(F)cccc2F)n1`, the MIC was 31.2 µg/mL (≈ 53.5 µM) in assay [1]; 31.2 µg/mL (≈ 53.5 µM) in assay [2]; 16 µg/mL (≈ 27.4 µM) in assay [3]; 16 µg/mL (≈ 27.4 µM) in assay [4]; 16 µg/mL (≈ 27.4 µM) in assay [5]; 8 µg/mL (≈ 13.7 µM) in assay [6]. Besides, the minimum inhibitory concentration (MIC) in assay [7] stood at 16 µg/mL (≈ 27.4 µM); in assay [8] it was 8 µg/mL (≈ 13.7 µM); in assay [9] it was 16 µg/mL (≈ 27.4 µM); in assay [10], 31.2 µg/mL (≈ 53.5 µM).

Take `CC(C)c1csc(-c2nnc(S(=O)(=O)Cc3ccc(Br)cc3F)n2/N=C/c2ccc(F)cc2)n1`: the MIC in [1] is 8 µg/mL (≈ 14.1 µM); in assay [2] it was 16 µg/mL (≈ 28.2 µM); in [3], 31.2 µg/mL (≈ 55.2 µM); in assay [4] it was 31.2 µg/mL (≈ 55.2 µM); in [5] it was 31.2 µg/mL (≈ 55.2 µM); in assay [6], 62.5 µg/mL (≈ 110 µM). Also, the MIC in [7] stood at 8 µg/mL (≈ 14.1 µM); in [8], 16 µg/mL (≈ 28.2 µM); in assay [9], 31.2 µg/mL (≈ 55.2 µM); in assay [10], 31.2 µg/mL (≈ 55.2 µM).

On to `CC(C)c1csc(-c2nnc(S(=O)(=O)Cc3ccc(Cl)cc3)n2/N=C/c2c(F)cccc2F)n1`, for which the MIC in assay [1] worked out at 31.2 µg/mL (≈ 59.9 µM); in assay [2], 31.2 µg/mL (≈ 59.9 µM); in assay [3], 31.2 µg/mL (≈ 59.9 µM); in [4], 16 µg/mL (≈ 30.7 µM); in assay [5], 8 µg/mL (≈ 15.3 µM); in assay [6] it was 62.5 µg/mL (≈ 120 µM). Also, the MIC was 8 µg/mL (≈ 15.3 µM) in assay [7], 8 µg/mL (≈ 15.3 µM) in assay [8], 62.5 µg/mL (≈ 120 µM) in [9] and 31.2 µg/mL (≈ 59.9 µM) in assay [10].

With `CC(C)c1csc(-c2nnc(S(=O)(=O)Cc3ccc(Br)cc3F)n2-c2ccccc2)n1`, the MIC was 16 µg/mL (≈ 30.7 µM) in assay [1]; 31.2 µg/mL (≈ 59.9 µM) in assay [2]; 16 µg/mL (≈ 30.7 µM) in [3]; 31.2 µg/mL (≈ 59.9 µM) in assay [4]; 16 µg/mL (≈ 30.7 µM) in assay [5]; 16 µg/mL (≈ 30.7 µM) in assay [6]. For the same compound, the MIC in assay [7] stood at 8 µg/mL (≈ 15.3 µM); in assay [8] it was 8 µg/mL (≈ 15.3 µM); in assay [9], 16 µg/mL (≈ 30.7 µM); in [10], 31.2 µg/mL (≈ 59.9 µM).

Values taken from ChEMBL document CHEMBL3046455, “Synthesis and pharmacological evaluation of some novel 4-isopropyl thiazole-based sulfonyl derivatives as potent antimicrobial and antitubercular agents” (Med Chem Res, 2013).
